This passage reports EC50 results from US10799507B2, “5-(7H-pyrrolo[2,3-d]pyrimidin-4-yl)-5-azaspiro[2.5]octane-8-carboxylic acid derivatives as novel JAK kinase inhibitors” (LEO Pharma A/S, priority 2017, dated 2020).

Type in all cases: biochemical
One assay has as its target TYK2 (Homo sapiens (Human), UniProt P29597). The assay is described as follows: JAK kinase assay (HTRF), TYK2. Conditions: catalytic domain, ATP at Km (13 μM). On the procedure: (§1) Human baculovirus-expressed JAK1, 2, 3 and TYK2 were purchased from Carna Biosciences, Inc. All four purified enzymes contain only the catalytic domain. JAK1 (aa 850-1154) and TYK2 (aa 871-1187) are expressed with an N-terminally fused GST-tag, and JAK2 and JAK3 with an N-terminally fused His-tag.
(§2) Inhibition of phosphorylation of a synthetic peptide was measured in an HTRF-based assay using the TK substrate-Biotin from the Cisbio HTRFKinEASE TK kit. First, 2 μl of TK solution (TK substrate-biotin in kinase buffer [1× enzymatic buffer from HTRFKinEASE TK kit, 1 mM DTT]) is added to a plate containing 1 μl prediluted compound (final assay concentration DMSO: 0.75%). Then, 5 μl kinase-ATP mix (prepared in kinase buffer) is added to the wells and the plates are incubated at RT for 20-30 min. For all four kinases a concentration of ATP that corresponded to the Km for ATP was used. The final concentrations of buffers, substrate, kinase and ATP were: JAK1: 50 mM Hepes buffer pH 7.0, 0.01% BSA, 10 mM MgCl2, 1 mM DTT, 7 μM ATP, 50 nM SEB, 1 μM TK Substrate-Biotin and 5 ng JAK1; JAK2: 50 mM Hepes buffer pH 7.0, 0.01% BSA, 5 mM MgCl2, 1 mM DTT, 4 μM ATP, 1 μM TK Substrate-Biotin and 0.1 ng JAK2; JAK3: 50 mM Hepes buffer pH 7.0, 0.01% BSA, 5 mM MgCl2, 1 mM DTT, 2 μM ATP, 1 μM TK Substrate-Biotin and 0.3 ng JAK3; TYK2: 50 mM Hepes buffer pH 7.0, 0.01% BSA, 5 mM MgCl2, 1 mM DTT, 13 μM ATP, 50 nM SEB, 1 μM TK Substrate-Biotin and 0.8 ng TYK2. Thereafter, the kinase reaction is stopped by adding 4 μl detection mix (final concentrations: 50 mM Hepes buffer pH 7.0, 0.01% BSA, 0.8 M KF, 20 mM EDTA, 42 nM Streptavidin-XL665 and 1:400 STK Ab Cryptate) and the plates are incubated overnight in the dark. The HTRF signal is read using an Envision plate reader.
(§3) In Table 1 selected JAK kinase inhibitory activities are listed along with analytical tR and observed M+H^+ data (UPLC-MS method 7).

Another assay addresses JAK1 (Homo sapiens (Human), UniProt P23458). Nature of the assay: JAK kinase assay (HTRF), JAK1. The settings on record: catalytic domain, ATP at Km (7 μM). On the procedure: as §1, §2
In general terms: TR-FRET usually uses a lanthanide donor and a delayed reading to cut background.

A further assay has as its target JAK3 (Homo sapiens (Human), UniProt P52333). Nature of the assay: JAK kinase assay (HTRF), JAK3. Conditions: catalytic domain, ATP at Km (2 μM). On the procedure:
as §1, §2, §3

In a further assay the target is JAK2 (Homo sapiens (Human), UniProt O60674). The assay is described as follows: JAK kinase assay (HTRF), JAK2. Conditions: catalytic domain, ATP at Km (4 μM). As to the method: as §1, §2
Chain of JAK2 (O60674 849-1124): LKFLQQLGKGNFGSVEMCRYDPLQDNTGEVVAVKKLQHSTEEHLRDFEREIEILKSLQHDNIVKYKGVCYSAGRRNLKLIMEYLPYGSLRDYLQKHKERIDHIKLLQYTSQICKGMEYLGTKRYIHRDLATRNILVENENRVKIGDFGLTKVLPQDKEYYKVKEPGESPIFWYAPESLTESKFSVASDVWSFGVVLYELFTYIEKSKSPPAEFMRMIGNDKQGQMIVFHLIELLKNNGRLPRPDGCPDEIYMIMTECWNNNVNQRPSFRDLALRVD

Chain of JAK3 (P52333 822-1111): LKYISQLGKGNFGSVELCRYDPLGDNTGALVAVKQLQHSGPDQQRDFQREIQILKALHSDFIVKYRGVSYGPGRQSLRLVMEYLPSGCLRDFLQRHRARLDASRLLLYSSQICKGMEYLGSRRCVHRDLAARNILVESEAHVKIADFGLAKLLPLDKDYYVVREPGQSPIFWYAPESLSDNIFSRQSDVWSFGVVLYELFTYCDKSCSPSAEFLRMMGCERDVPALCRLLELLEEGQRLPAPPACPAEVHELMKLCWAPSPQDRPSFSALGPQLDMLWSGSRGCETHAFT
Chain of JAK1 (P23458 850-1154): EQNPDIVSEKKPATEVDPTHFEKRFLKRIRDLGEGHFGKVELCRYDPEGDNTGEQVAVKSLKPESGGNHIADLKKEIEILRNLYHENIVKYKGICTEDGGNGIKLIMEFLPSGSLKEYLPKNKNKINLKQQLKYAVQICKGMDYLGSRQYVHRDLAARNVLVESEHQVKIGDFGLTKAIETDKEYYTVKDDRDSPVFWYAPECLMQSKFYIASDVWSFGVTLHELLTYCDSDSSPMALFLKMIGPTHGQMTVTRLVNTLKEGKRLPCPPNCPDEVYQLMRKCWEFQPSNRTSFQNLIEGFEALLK
Chain of TYK2 (P29597 871-1187): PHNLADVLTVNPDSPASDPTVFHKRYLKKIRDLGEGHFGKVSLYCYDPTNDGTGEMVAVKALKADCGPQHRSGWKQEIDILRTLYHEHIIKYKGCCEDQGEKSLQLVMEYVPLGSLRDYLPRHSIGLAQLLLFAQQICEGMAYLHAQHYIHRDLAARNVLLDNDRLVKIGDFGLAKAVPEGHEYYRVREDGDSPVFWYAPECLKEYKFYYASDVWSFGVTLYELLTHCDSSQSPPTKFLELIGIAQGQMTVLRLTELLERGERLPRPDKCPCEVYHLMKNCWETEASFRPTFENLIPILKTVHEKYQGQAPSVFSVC

By EC50 is commonly meant the midpoint of the concentration-response curve. Low values mean an effect from little substance, high ones a need for much substance. Consider `O=C(NCC1CC(F)(F)C1)[C@H](O)CNC(=O)[C@H]1CCN(c2ncnc3[nH]ccc23)CC12CC2` (single isomer, unassigned) [Example 130], for which the half-maximal effective concentration (EC50) amounted to 490 nM at TYK2, 23.2 nM on JAK1, 51 nM on JAK3 and 45.9 nM on JAK2.

On to `NS(=O)(=O)c1ccc(CNC(=O)C2CCN(c3ncnc4[nH]ccc34)CC23CC3)cc1` (centres unmarked) [Example 33, 5-(7H-pyrrolo[2,3-d]pyrimidin-4-yl)-N-[(4-sulfamoylphenyl)methyl]-5-azaspiro[2.5]octane-8-carboxamide], for which the concentration giving a half-maximal response (EC50) at TYK2 stood at 28.9 nM; at JAK1, 1.9 nM; at JAK3 it was 6 nM; at JAK2, 5 nM.

`CC(NC(=O)C1CCN(c2ncnc3[nH]ccc23)CC12CC2)c1ccc(F)cc1` (centres unmarked) [Example 61, N-[1-(4-fluorophenyl)ethyl]-5-(7H-pyrrolo[2,3-d]pyrimidin-4-yl)-5-azaspiro[2.5]octane-8-carboxamide]: the 50% effective concentration (EC50) at JAK1 came to 4.3 nM; on JAK3, 22.1 nM; at JAK2, 7.2 nM.

Regarding `COc1ccc([C@H](C)NC(=O)C2CCN(c3ncnc4[nH]ccc34)CC23CC3)cc1` (stereo partly drawn) [Example 66, N-[(1S)-1-(4-methoxyphenyl)ethyl]-5-(7H-pyrrolo[2,3-d]pyrimidin-4-yl)-5-azaspiro[2.5]octane-8-carboxamide], the values for the EC50 at JAK1, at JAK3 and at JAK2 were 4.8 nM, 40.7 nM and 8.3 nM, respectively.

With `N#Cc1cccc(CNC(=O)C2CCN(c3ncnc4[nH]ccc34)CC23CC3)c1` (centres unmarked) [Example 70, N-[(3-cyanophenyl)methyl]-5-(7H-pyrrolo[2,3-d]pyrimidin-4-yl)-5-azaspiro[2.5]octane-8-carboxamide], the figures for the concentration for a half-maximal effect (EC50) at JAK1, at JAK3 and at JAK2 were 5.5 nM, 32.6 nM and 8.6 nM, respectively.

For the molecule `C[C@@H](NC(=O)C1CCN(c2ncnc3[nH]ccc23)CC12CC2)c1ccc(F)c(F)c1` (stereo partly drawn) [Example 113, N-[(1R)-1-(3,4-difluorophenyl)ethyl]-5-(7H-pyrrolo[2,3-d]pyrimidin-4-yl)-5-azaspiro[2.5]octane-8-carboxamide], the EC50 on JAK1 is 11.6 nM; at JAK3, 51.2 nM; on JAK2 it was 19.4 nM.

As for `C[C@@H](NC(=O)C1CCN(c2ncnc3[nH]ccc23)CC12CC2)c1cccc(C#N)c1` (stereo partly drawn) [Example 117, N-[(1R)-1-(3-cyanophenyl)ethyl]-5-(7H-pyrrolo[2,3-d]pyrimidin-4-yl)-5-azaspiro[2.5]octane-8-carboxamide], the EC50 at JAK1 was determined as 12.4 nM; on JAK3, 73.8 nM; on JAK2 it was 21.6 nM.

In the case of `C[C@@H](NC(=O)C1CCN(c2ncnc3[nH]ccc23)CC12CC2)c1ccc(F)c(C#N)c1` (stereo partly drawn) [Example 123, N-[(1R)-1-(3-cyano-4-fluoro-phenyl)ethyl]-5-(7H-pyrrolo[2,3-d]pyrimidin-4-yl)-5-azaspiro[2.5]octane-8-carboxamide], the results for the EC50 at JAK1, at JAK3 and on JAK2 were 16.3 nM, 63.9 nM and 21.4 nM, respectively.

Consider `COc1ccc([C@@H](C)NC(=O)C2CCN(c3ncnc4[nH]ccc34)CC23CC3)cc1F` (stereo partly drawn) [Example 124, N-[(1R)-1-(3-fluoro-4-methoxy-phenyl)ethyl]-5-(7H-pyrrolo[2,3-d]pyrimidin-4-yl)-5-azaspiro[2.5]octane-8-carboxamide], for which the half-maximal effective concentration (EC50) at JAK1 was determined as 18.6 nM; at JAK3 it was 144 nM; at JAK2 it was 59.7 nM.

Turning to `COc1cc(F)ccc1[C@@H](C)NC(=O)C1CCN(c2ncnc3[nH]ccc23)CC12CC2` (stereo partly drawn) [Example 131, N-[(1R)-1-(4-fluoro-2-methoxy-phenyl)ethyl]-5-(7H-pyrrolo[2,3-d]pyrimidin-4-yl)-5-azaspiro[2.5]octane-8-carboxamide], the EC50 was 24.6 nM on JAK1, 247 nM at JAK3 and 30.3 nM at JAK2.

As to `C[C@@H](NC(=O)C1CCN(c2ncnc3[nH]ccc23)CC12CC2)c1cccc(F)c1` (stereo partly drawn) [Example 134, N-[(1R)-1-(3-fluorophenyl)ethyl]-5-(7H-pyrrolo[2,3-d]pyrimidin-4-yl)-5-azaspiro[2.5]octane-8-carboxamide], the results for the EC50 at JAK1, on JAK3 and at JAK2 were 32.8 nM, 171 nM and 80.6 nM, respectively.

Consider `COc1cccc([C@@H](C)NC(=O)C2CCN(c3ncnc4[nH]ccc34)CC23CC3)c1` (stereo partly drawn) [Example 139, N-[(1R)-1-(3-methoxyphenyl)ethyl]-5-(7H-pyrrolo[2,3-d]pyrimidin-4-yl)-5-azaspiro[2.5]octane-8-carboxamide], for which the EC50 on JAK1 was 39.2 nM; at JAK3 it was 99.3 nM; at JAK2 it was 61.2 nM.

As to `N#Cc1ccc([C@H](O)CNC(=O)[C@@H]2CCN(c3ncnc4[nH]ccc34)CC23CC3)cc1` [Example 142, (8R)-N-[(2S)-2-(4-cyanophenyl)-2-hydroxy-ethyl]-5-(7H-pyrrolo[2,3-d]pyrimidin-4-yl)-5-azaspiro[2.5]octane-8-carboxamide], the half-maximal effective concentration (EC50) at JAK1 is 42.7 nM; at JAK3 it was 278 nM; at JAK2, 179 nM.

Consider `COc1cc([C@@H](C)NC(=O)C2CCN(c3ncnc4[nH]ccc34)CC23CC3)ccc1F` (stereo partly drawn) [Example 143, N-[(1R)-1-(4-fluoro-3-methoxy-phenyl)ethyl]-5-(7H-pyrrolo[2,3-d]pyrimidin-4-yl)-5-azaspiro[2.5]octane-8-carboxamide], for which the EC50 turned out to be 45.1 nM on JAK1, 199 nM on JAK3 and 90.4 nM on JAK2.

For the molecule `COc1cncc([C@@H](C)NC(=O)C2CCN(c3ncnc4[nH]ccc34)CC23CC3)c1` (stereo partly drawn) [Example 144, N-[(1R)-1-(5-methoxy-3-pyridyl)ethyl]-5-(7H-pyrrolo[2,3-d]pyrimidin-4-yl)-5-azaspiro[2.5]octane-8-carboxamide], the EC50 at JAK1 came to 48.5 nM; at JAK3, 157 nM; on JAK2 it was 80.6 nM.

For `C[C@H](NC(=O)[C@H]1CCN(c2ncnc3[nH]ccc23)CC12CC2)[C@@H](O)c1cccc(F)c1` [Example 150, (8S)-N-[(1S,2S)-2-(3-fluorophenyl)-2-hydroxy-1-methyl-ethyl]-5-(7H-pyrrolo[2,3-d]pyrimidin-4-yl)-5-azaspiro[2.5]octane-8-carboxamide], the EC50 came out at 21 nM on TYK2, 2.7 nM at JAK1 and 3.1 nM at JAK3.

`C[C@H](NC(=O)[C@H]1CCN(c2ncnc3[nH]ccc23)CC12CC2)[C@@H](O)c1cccnc1` [Example 151, (8S)-N-[(1S,2S)-2-hydroxy-1-methyl-2-(3-pyridyl)ethyl]-5-(7H-pyrrolo[2,3-d]pyrimidin-4-yl)-5-azaspiro[2.5]octane-8-carboxamide]: the EC50 on TYK2 was 184 nM; on JAK1 it was 10.9 nM; at JAK3 it was 29.7 nM.

As for `C[C@H](NC(=O)[C@H]1CCN(c2ncnc3[nH]ccc23)CC12CC2)[C@@H](O)c1ccccc1` [Example 152, (8S)-N-[(1S,2S)-2-hydroxy-1-methyl-2-phenyl-ethyl]-5-(7H-pyrrolo[2,3-d]pyrimidin-4-yl)-5-azaspiro[2.5]octane-8-carboxamide], the EC50 is 27.7 nM on TYK2, 2.7 nM on JAK1 and 5.8 nM at JAK3.
